From paper PMC7377239, “Cardiovascular Effects of Polychlorinated Biphenyls and Their Major Metabolites” (Environmental Health Perspectives, 2020)
Read-outs that look alike come from different tables or passages of the source.

What was measured:
[1] = test system: iCell endothelial cells (human iPSC-derived ECs); experiment: High-content imaging cytotoxicity in iCell endothelial cells, 24 h; format: cell-based; conditions: Homo sapiens, Endothelial cell, 24 hr; for viability at 0.1 µM / activity at 0.1 µM: 0.10 µM
How it was run: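 Human iPSC-derived endothelial cells (passages 1–5) were grown to a fibronectin-coated monolayer, then exposed 24 h at 37 °C with 0.5% DMSO vehicle. Staining was Hoechst 33342, MitoTracker Orange and calcein AM, read by high-content imaging. Point of departure came from 4-parameter logistic fits, with a 1-SD vehicle cutoff and 100 µM as the top concentration.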

[2] = test system: iCell endothelial cells (human iPSC-derived ECs); experiment: Tube formation (tubulogenesis) assay in iCell endothelial cells, 18 h; format: cell-based; conditions: Homo sapiens, Endothelial cell, 18 hr; for activity at 0.1 µM: 0.10 µM
How it was run: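 iCell ECs (passages 1–5) seeded 7,500 cells/well on reduced-growth-factor Geltrex in starvation medium, exposed overnight at 37°C to compounds in triplicate concentration–response (0.5% DMSO vehicle). Calcein AM staining, 4× imaging, angiogenesis image analysis; readouts normalized to vehicle, four-parameter logistic fit, POD at 1 SD of vehicle; 100 μM assigned NOAEL if no response.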

[3] = endothelial cells (endo), cyto, read-out: POD endo.cyto.24hr
[4] = endothelial cells (endo), mito, read-out: POD endo.mito.24hr
[5] = endothelial cells (endo), mitoint, read-out: POD endo.mitoint.24hr
[6] = endothelial cells (endo), nma, read-out: POD endo.nma.24hr
[7] = endothelial cells (endo), tc, read-out: POD endo.tc.24hr
[8] = endothelial cells (endo), tube formation mtl, read-out: POD endo.mtl.18hr
[9] = endothelial cells (endo), tube formation tlps, read-out: POD endo.tlps.18hr
[10] = endothelial cells (endo), tube formation tta, read-out: POD endo.tta.18hr
[11] = endothelial cells (endo), tube formation ttl, read-out: POD endo.ttl.18hr
[12] = iPSC-EC, 0.00 µM control = 100.00, read-out: endo.cyto.24hr
[13] = iPSC-EC, 0.00 µM control = 100.00, read-out: endo.mito.24hr
[14] = iPSC-EC, 0.00 µM control = 100.00, read-out: endo.mitoint.24hr
[15] = iPSC-EC, 0.00 µM control = 100.00, read-out: endo.nma.24hr
[16] = iPSC-EC, 0.00 µM control = 100.00, read-out: endo.tc.24hrs
[17] = iPSC-EC tube formation, 0.00 µM control = 100.00, read-out: endo.mtl.18hr
[18] = iPSC-EC tube formation, 0.00 µM control = 100.00, read-out: endo.tlps.18hr
[19] = iPSC-EC tube formation, 0.00 µM control = 100.00, read-out: endo.tta.18hr
[20] = iPSC-EC tube formation, 0.00 µM control = 100.00, read-out: endo.ttl.18hr

Molecule `Oc1cc(Cl)c(-c2cc(Cl)ccc2Cl)cc1Cl` [4-OH-PCB 52] has a minimal effective concentration [1, 3] of 13.2 µM, a minimal effective concentration [1, 4] of 13.2 µM and a minimal effective concentration [1, 5] of 43.8 µM. The minimal effective concentration [1, 6] was 63.5 µM, the minimal effective concentration [1, 7] was 16.6 µM and the minimal effective concentration [2, 8] was 9.52 µM. The minimal effective concentration [2, 9] was 8.32 µM, the minimal effective concentration [2, 10] was 15 µM and the minimal effective concentration [2, 11] was 15.2 µM.

`Clc1ccc(-c2cc(Cl)c(Cl)c(Cl)c2)cc1Cl` [PCB 126, 3,3′,4,4′,5-pentachlorobiphenyl] gave a minimal effective concentration [1, 3] of 0.33 µM, a minimal effective concentration [1, 4] of 0.33 µM and a minimal effective concentration [1, 5] of 10.2 µM. It also gave a minimal effective concentration [1, 6] of 100 µM, a minimal effective concentration [1, 7] of 0.34 µM and a minimal effective concentration [2, 8] of 28.1 µM. The minimal effective concentration [2, 9] was 4.68 µM, the minimal effective concentration [2, 10] was 25.7 µM and the minimal effective concentration [2, 11] was 38.9 µM.

`Oc1ccc(-c2cccc(Cl)c2)cc1Cl` [4-OH-PCB 11] was tested, and the minimal effective concentration [1, 3] was 43.6 µM, the minimal effective concentration [1, 4] was 43.6 µM and the minimal effective concentration [1, 5] was 13 µM. For the same molecule, the minimal effective concentration [1, 6] was 9.66 µM, the minimal effective concentration [1, 7] was 62.1 µM and the minimal effective concentration [2, 8] was 17.7 µM. The minimal effective concentration [2, 9] was 52.5 µM, the minimal effective concentration [2, 10] was 15.8 µM and the minimal effective concentration [2, 11] was 16.1 µM.

`Oc1ccccc1-c1ccc(Cl)cc1` [2'-OH PCB3] gave a viability at 0.01 µM [1, 12] of 99.2%, an activity at 0.01 µM [1, 13] of 99.4% and an activity at 0.01 µM [1, 14] of 117%. The activity at 0.01 µM [1, 15] was 98.3%, the viability at 0.01 µM [1, 16] was 99.2% and the viability at 0.1 µM [1, 12] was 96.5%. The activity at 0.1 µM [1, 13] was 97%, the activity at 0.1 µM [1, 14] was 101% and the activity at 0.1 µM [1, 15] was 98.8%. For the same molecule, the viability at 0.1 µM [1, 16] was 96.5%, the viability at 1 µM [1, 12] was 100% and the activity at 1 µM [1, 13] was 100%. The activity at 1 µM [1, 14] was 108%, the activity at 1 µM [1, 15] was 96.4% and the viability at 1 µM [1, 16] was 100%. It also gave a viability at 10 µM [1, 12] of 103%, an activity at 10 µM [1, 13] of 103% and an activity at 10 µM [1, 14] of 124%. For the same molecule, the activity at 10 µM [1, 15] was 97%, the viability at 10 µM [1, 16] was 103% and the viability at 100 µM [1, 12] was 57.8%. It also gave an activity at 100 µM [1, 13] of 61.3%, an activity at 100 µM [1, 14] of 87.3% and an activity at 100 µM [1, 15] of 89.5%. It also gave a viability at 100 µM [1, 16] of 87%, a minimal effective concentration ([1]; iPSC-EC, top concentration 100.00 µM, read-out: endo.cyto.24hr POD) of 44.3 µM and a minimal effective concentration ([1]; iPSC-EC, top concentration 100.00 µM, read-out: endo.mito.24hr POD) of 44.3 µM. The minimal effective concentration ([1]; iPSC-EC, top concentration 100.00 µM, read-out: endo.mitoint.24hr POD) was 100 µM, the minimal effective concentration ([1]; iPSC-EC, top concentration 100.00 µM, read-out: endo.nma.24hr POD) was 1.82 µM and the minimal effective concentration ([1]; iPSC-EC, top concentration 100.00 µM, read-out: endo.tc.24hrs POD) was 68.2 µM. For the same molecule, the activity at 0.01 µM [2, 17] was 114%, the activity at 0.01 µM [2, 18] was 123% and the activity at 0.01 µM [2, 19] was 120%. It also gave an activity at 0.01 µM [2, 20] of 113%, an activity at 0.1 µM [2, 17] of 106% and an activity at 0.1 µM [2, 18] of 118%. For the same molecule, the activity at 0.1 µM [2, 19] was 103%, the activity at 0.1 µM [2, 20] was 103% and the activity at 1 µM [2, 17] was 100%. It also gave an activity at 1 µM [2, 18] of 102%, an activity at 1 µM [2, 19] of 99.3% and an activity at 1 µM [2, 20] of 98.8%. It also gave an activity at 10 µM [2, 17] of 91.1%, an activity at 10 µM [2, 18] of 76.6% and an activity at 10 µM [2, 19] of 98%. The activity at 10 µM [2, 20] was 91.8%, the activity at 100 µM [2, 17] was 54.3% and the activity at 100 µM [2, 18] was 20.2%. For the same molecule, the activity at 100 µM [2, 19] was 18.5%, the activity at 100 µM [2, 20] was 21.2% and the minimal effective concentration ([2]; iPSC-EC tube formation, top concentration 100.00 µM, read-out: endo.mtl.18hr POD) was 13.4 µM. The minimal effective concentration ([2]; iPSC-EC tube formation, top concentration 100.00 µM, read-out: endo.tlps.18hr POD) was 9.27 µM, the minimal effective concentration ([2]; iPSC-EC tube formation, top concentration 100.00 µM, read-out: endo.tta.18hr POD) was 29.9 µM and the minimal effective concentration ([2]; iPSC-EC tube formation, top concentration 100.00 µM, read-out: endo.ttl.18hr POD) was 23.1 µM.
